Laboratory results reported in ChEMBL document CHEMBL5625252, “Synthesis of peptidomimetics as antibiotic adjuvants for combination with aztreonam to combat MDR Pseudomonas aeruginosa” (Eur J Med Chem, 2023).
≈ marks a conversion by molar mass, not a printed value. Where a SMILES comes first, the peptide text is derived from it. The star is where a group is joined. βNA = c1ccc2cc(N*)ccc2c1

What was measured:
Format in all cases: functional
Pseudomonas aeruginosa [1] = test: Synergistic antibacterial activity against Pseudomonas aeruginosa 21-7 assessed as fractional inhibitory concentration index at 128 ug/ml incubated for 18 hrs in presence of aztreonam by checkerboard method; conditions: dose 128 µg/ml
Pseudomonas aeruginosa [2] = test: Synergistic antibacterial activity against Pseudomonas aeruginosa 13-35 in CAMH broth medium supplemented with 20.99 to 21.09 mM Mg2+ in presence of aztreonam by checkerboard assay
Pseudomonas aeruginosa [3] = test: Synergistic antibacterial activity against Pseudomonas aeruginosa PAO1 assessed as fractional inhibitory concentration index at 128 ug/ml incubated for 18 hrs in presence of aztreonam by checkerboard method; conditions: dose 128 µg/ml
Pseudomonas aeruginosa [4] = test: Synergistic antibacterial activity against Pseudomonas aeruginosa 16-11 assessed as fractional inhibitory concentration index at 128 ug/ml incubated for 18 hrs in presence of aztreonam by checkerboard method; conditions: dose 128 µg/ml
Pseudomonas aeruginosa [5] = test: Synergistic antibacterial activity against Pseudomonas aeruginosa PAO1 assessed as fractional inhibitory concentration index in CAMH broth medium supplemented with 20.99 to 21.09 mM Mg2+ in presence of aztreonam by checkerboard assay
Pseudomonas aeruginosa [6] = test: Antibacterial activity against Pseudomonas aeruginosa 23-Y417 assessed as inhibition of bacterial growth incubated for 18 hrs by agar dilution method
Pseudomonas aeruginosa [7] = test: Antibacterial activity against Pseudomonas aeruginosa 23-Y364 assessed as inhibition of bacterial growth incubated for 18 hrs by agar dilution method
Pseudomonas aeruginosa [8] = test: Synergistic antibacterial activity against Pseudomonas aeruginosa 12-1 assessed as aztreonam MIC at 128 ug/ml incubated for 18 hrs by checkerboard method; conditions: dose 128 µg/ml
Pseudomonas aeruginosa [9] = test: Synergistic antibacterial activity against Pseudomonas aeruginosa 12-1 assessed as fractional inhibitory concentration index at 128 ug/ml incubated for 18 hrs in presence of aztreonam by checkerboard method; conditions: dose 128 µg/ml
Pseudomonas aeruginosa [10] = test: Synergistic antibacterial activity against Pseudomonas aeruginosa 13-35 assessed as fractional inhibitory concentration index in CAMH broth medium supplemented with 20.99 to 21.09 mM Mg2+ in presence of aztreonam by checkerboard assay
Pseudomonas aeruginosa [11] = test: Synergistic antibacterial activity against Pseudomonas aeruginosa PAO1 assessed as fractional inhibitory concentration index incubated for 18 hrs in presence of aztreonam by checkerboard method
Pseudomonas aeruginosa [12] = test: Synergistic antibacterial activity against Pseudomonas aeruginosa 12-1 assessed as fractional inhibitory concentration index in CAMH broth medium supplemented with 20.99 to 21.09 mM Mg2+ in presence of aztreonam by checkerboard assay
Pseudomonas aeruginosa [13] = test: Antibacterial activity against Pseudomonas aeruginosa 13-35 in CAMH broth medium supplemented with 0.41 to 0.51 mM Mg2+ by checkerboard assay
Pseudomonas aeruginosa [14] = test: Synergistic antibacterial activity against Pseudomonas aeruginosa PAO1 assessed as fractional inhibitory concentration index in CAMH broth medium supplemented with 0.41 to 0.51 mM Mg2+ in presence of aztreonam by checkerboard assay
Pseudomonas aeruginosa [15] = test: Synergistic antibacterial activity against Pseudomonas aeruginosa 16-2 assessed as fractional inhibitory concentration index at 128 ug/ml incubated for 18 hrs in presence of aztreonam by checkerboard method; conditions: dose 128 µg/ml
Pseudomonas aeruginosa [16] = test: Antibacterial activity against Pseudomonas aeruginosa 13-35 in CAMH broth medium supplemented with 20.99 to 21.09 mM Mg2+ by checkerboard assay
Pseudomonas aeruginosa [17] = test: Synergistic antibacterial activity against Pseudomonas aeruginosa 19-46 assessed as fractional inhibitory concentration index at 128 ug/ml incubated for 18 hrs in presence of aztreonam by checkerboard method; conditions: dose 128 µg/ml
Pseudomonas aeruginosa [18] = test: Synergistic antibacterial activity against Pseudomonas aeruginosa 16-11 in CAMH broth medium supplemented with 0.41 to 0.51 mM Mg2+ in presence of aztreonam by checkerboard assay
Pseudomonas aeruginosa [19] = test: Antibacterial activity against Pseudomonas aeruginosa 12-1 in CAMH broth medium supplemented with 0.41 to 0.51 mM Mg2+ by checkerboard assay
Pseudomonas aeruginosa [20] = test: Antibacterial activity against Pseudomonas aeruginosa 21-8 assessed as inhibition of bacterial growth incubated for 18 hrs by agar dilution method
Pseudomonas aeruginosa [21] = test: Synergistic antibacterial activity against Pseudomonas aeruginosa 23-Y511 assessed as fractional inhibitory concentration index at 128 ug/ml incubated for 18 hrs in presence of aztreonam by checkerboard method; conditions: dose 128 µg/ml
Pseudomonas aeruginosa [22] = test: Synergistic antibacterial activity against Pseudomonas aeruginosa 23-Y364 assessed as fractional inhibitory concentration index at 128 ug/ml incubated for 18 hrs in presence of aztreonam by checkerboard method; conditions: dose 128 µg/ml
Pseudomonas aeruginosa [23] = test: Synergistic antibacterial activity against Pseudomonas aeruginosa 23-Y539 assessed as fractional inhibitory concentration index at 128 ug/ml incubated for 18 hrs in presence of aztreonam by checkerboard method; conditions: dose 128 µg/ml
Pseudomonas aeruginosa [24] = test: Synergistic antibacterial activity against Pseudomonas aeruginosa 13-17 assessed as fractional inhibitory concentration index at 128 ug/ml incubated for 18 hrs in presence of aztreonam by checkerboard method; conditions: dose 128 µg/ml
Pseudomonas aeruginosa [25] = test: Synergistic antibacterial activity against Pseudomonas aeruginosa 12-1 in CAMH broth medium supplemented with 20.99 to 21.09 mM Mg2+ in presence of aztreonam by checkerboard assay
Pseudomonas aeruginosa [26] = test: Antibacterial activity against Pseudomonas aeruginosa K854 overexpressing MexAB-OprM assessed as fractional inhibitory concentration index upto 128 ug/ml incubated for 18 hrs in presence of aztreonam by checkerboard method; conditions: dose <= 128 µg/ml
Pseudomonas aeruginosa [27] = test: Synergistic antibacterial activity against Pseudomonas aeruginosa 21-8 assessed as fractional inhibitory concentration index at 128 ug/ml incubated for 18 hrs in presence of aztreonam by checkerboard method; conditions: dose 128 µg/ml
Pseudomonas aeruginosa [28] = test: Synergistic antibacterial activity against Pseudomonas aeruginosa 13-3 assessed as fractional inhibitory concentration index at 128 ug/ml incubated for 18 hrs in presence of aztreonam by checkerboard method; conditions: dose 128 µg/ml
Pseudomonas aeruginosa [29] = test: Synergistic antibacterial activity against Pseudomonas aeruginosa PAO1 in CAMH broth medium supplemented with 20.99 to 21.09 mM Mg2+ in presence of aztreonam by checkerboard assay
Pseudomonas aeruginosa [30] = test: Synergistic antibacterial activity against Pseudomonas aeruginosa 13-35 assessed as fractional inhibitory concentration index at 128 ug/ml incubated for 18 hrs in presence of aztreonam by checkerboard method; conditions: dose 128 µg/ml
Pseudomonas aeruginosa [31] = test: Synergistic antibacterial activity against Pseudomonas aeruginosa 23-Y417 assessed as fractional inhibitory concentration index at 128 ug/ml incubated for 18 hrs in presence of aztreonam by checkerboard method; conditions: dose 128 µg/ml
Pseudomonas aeruginosa [32] = test: Antibacterial activity against Pseudomonas aeruginosa 16-11 in CAMH broth medium supplemented with 0.41 to 0.51 mM Mg2+ by checkerboard assay
Pseudomonas aeruginosa [33] = test: Antibacterial activity against Pseudomonas aeruginosa PAO1 in CAMH broth medium supplemented with 0.41 to 0.51 mM Mg2+ by checkerboard assay
Pseudomonas aeruginosa [34] = test: Antibacterial activity against Pseudomonas aeruginosa PAO1 in CAMH broth medium supplemented with 20.99 to 21.09 mM Mg2+ by checkerboard assay
Pseudomonas aeruginosa [35] = test: Synergistic antibacterial activity against Pseudomonas aeruginosa 16-11 in CAMH broth medium supplemented with 20.99 to 21.09 mM Mg2+ in presence of aztreonam by checkerboard assay
Pseudomonas aeruginosa [36] = test: Synergistic antibacterial activity against Pseudomonas aeruginosa PAO1 assessed as aztreonam MIC at 64 ug/ml incubated for 18 hrs by checkerboard method (reference value: 8 microg/ml); conditions: dose 64 µg/ml

| SMILES | fractional inhibitory concentration index (FICI) (Pseudomonas aeruginosa [1]) | MIC (Pseudomonas aeruginosa [2]) [µg/mL] | fractional inhibitory concentration index (FICI) (Pseudomonas aeruginosa [3]) | fractional inhibitory concentration index (FICI) (Pseudomonas aeruginosa [4]) | fractional inhibitory concentration index (FICI) (Pseudomonas aeruginosa [5]) | MIC (Pseudomonas aeruginosa [7]) [µg/mL] | MIC (Pseudomonas aeruginosa [8]) [µg/mL] | fractional inhibitory concentration index (FICI) (Pseudomonas aeruginosa [9]) | fractional inhibitory concentration index (FICI) (Pseudomonas aeruginosa [10]) | fractional inhibitory concentration index (FICI) (Pseudomonas aeruginosa [11]) | fractional inhibitory concentration index (FICI) (Pseudomonas aeruginosa [12]) | MIC (Pseudomonas aeruginosa [13]) [µg/mL] | fractional inhibitory concentration index (FICI) (Pseudomonas aeruginosa [14]) | fractional inhibitory concentration index (FICI) (Pseudomonas aeruginosa [15]) | MIC (Pseudomonas aeruginosa [16]) [µg/mL] | fractional inhibitory concentration index (FICI) (Pseudomonas aeruginosa [17]) | MIC (Pseudomonas aeruginosa [18]) [µg/mL] | MIC (Pseudomonas aeruginosa [19]) [µg/mL] | MIC (Pseudomonas aeruginosa [20]) [µg/mL] | fractional inhibitory concentration index (FICI) (Pseudomonas aeruginosa [21]) | further results |
| --- | --- | --- | --- | --- | --- | --- | --- | --- | --- | --- | --- | --- | --- | --- | --- | --- | --- | --- | --- | --- | --- |
| N=C(N)NCCC[C@H](NC(=O)[C@@H](N)Cc1ccccc1)C(=O)Nc1ccc2ccccc2c1 [PABETAN] (H-Phe-Arg-βNA) | 0.5 | 128 | 0.5 | 0.5 | 0.5 | 512 (≈ 1150 µM) | 8 | 0.375 | 0.375 | 0.375 | 1.25 | 512 | 0.5 | 0.5 | 512 | 0.375 | 128 | 512 | 512 (≈ 1150 µM) | 1 | MIC (Pseudomonas aeruginosa [6]; read-out: MIC): 512 µg/mL (≈ 1150 µM); fractional inhibitory concentration index (FICI) (Pseudomonas aeruginosa [22]): 0.281; fractional inhibitory concentration index (FICI) (Pseudomonas aeruginosa [23]): 0.313; fractional inhibitory concentration index (FICI) (Pseudomonas aeruginosa [24]): 0.313; MIC (Pseudomonas aeruginosa [25]): 128 µg/mL; fractional inhibitory concentration index (FICI) (Pseudomonas aeruginosa [26]): <0.75; fractional inhibitory concentration index (FICI) (Pseudomonas aeruginosa [27]): 0.5; fractional inhibitory concentration index (FICI) (Pseudomonas aeruginosa [28]): 0.375; MIC (Pseudomonas aeruginosa [29]): 128 µg/mL; fractional inhibitory concentration index (FICI) (Pseudomonas aeruginosa [30]): 0.375; fractional inhibitory concentration index (FICI) (Pseudomonas aeruginosa [31]): 0.5; MIC (Pseudomonas aeruginosa [32]): 512 µg/mL; MIC (Pseudomonas aeruginosa [33]): 512 µg/mL; MIC (Pseudomonas aeruginosa [34]): 512 µg/mL; MIC (Pseudomonas aeruginosa [35]): 128 µg/mL; MIC (Pseudomonas aeruginosa [36]): 2 µg/mL |
| NCCC[C@H](NC(=O)C[C@@H](N)Cc1ccccc1)C(=O)Nc1ccc2ccccc2c1 | 0.5 | 128 | 0.5 | 0.5 | 0.375 | > 512 | 16 | 0.5 | 0.5 | 0.375 | 1.25 | 512 | 0.5 | 0.5 | 512 | 0.375 | 128 | 512 | > 512 | 1 | MIC (Pseudomonas aeruginosa [6]): > 512 µg/mL; fractional inhibitory concentration index (FICI) (Pseudomonas aeruginosa [22]): <0.281; fractional inhibitory concentration index (FICI) (Pseudomonas aeruginosa [23]): 0.313; fractional inhibitory concentration index (FICI) (Pseudomonas aeruginosa [24]): 0.313; MIC (Pseudomonas aeruginosa [25]): 128 µg/mL; fractional inhibitory concentration index (FICI) (Pseudomonas aeruginosa [26]): <0.5; fractional inhibitory concentration index (FICI) (Pseudomonas aeruginosa [27]): <0.5; fractional inhibitory concentration index (FICI) (Pseudomonas aeruginosa [28]): 0.375; MIC (Pseudomonas aeruginosa [29]): 128 µg/mL; fractional inhibitory concentration index (FICI) (Pseudomonas aeruginosa [30]): 0.375; fractional inhibitory concentration index (FICI) (Pseudomonas aeruginosa [31]): <0.5; MIC (Pseudomonas aeruginosa [32]): 512 µg/mL; MIC (Pseudomonas aeruginosa [33]): 512 µg/mL; MIC (Pseudomonas aeruginosa [34]): 512 µg/mL; MIC (Pseudomonas aeruginosa [35]): 128 µg/mL; MIC (Pseudomonas aeruginosa [36]): 2 µg/mL |
